Reference: patent publication US11732029B2, “Methods and compositions for the treatment of wounds” (The University of Chicago, priority 2017, dated 2023)

Assays:
VEGF-A = assay: vWF binding to VEGF-A in human serum (sandwich ELISA, immunoprecipitation and Western blotting); settings: two lots of pooled serum from healthy donors
Protocol: One mL of human serum was immunoprecipitated with 10 μg of monoclonal rabbit anti-human vWF antibody (SinoBiological) or control rabbit IgG (EMD Millipore) and 50 μL of protein G-agarose (Thermo Fisher Scientific) overnight at 4° C. The resulting pellet was dissolved in Laemmli buffer and subjected to Western blot analysis. Western blot analysis was performed after SDS-PAGE (4-20% gradient gel, Bio-Rad) and transfer onto MS nitrocellulose membranes (Membrane Solutions). GFs were detected using 1 μg/mL biotinylated antibodies for human VEGF-A (R & D Systems), followed by incubation with HRP conjugated streptavidin (R & D Systems) at 1:200 dilutions. The proteins were detected and visualized with the ECL Plus Western Blotting Detection System (GE Healthcare).
The study was approved by the ethics committees of the Hammersmith, Queen Charlotte's, and Royal Marsden hospitals; informed consent was obtained from all individuals in accordance with the Declaration of Helsinki. ELISA plates (med-binding) were coated with 10 μg/mL rabbit monoclonal anti-human vWF antibody (clone: 111, SinoBiological). […] The antibodies were detected by streptavidin-HRP (R & D Systems). Color development and the absorbance measurement were done as described above.

FGF-2 = FGF-2 (Homo sapiens, UniProt P09038); assay: vWF binding to recombinant GFs (ELISA); design: All GFs and chemokines were purchased in their mature forms; purchased PeproTech; host or cells: Escherichia coli; settings: VEGF-A121 signal as baseline
FGF-2, sequence (P09038 143-288): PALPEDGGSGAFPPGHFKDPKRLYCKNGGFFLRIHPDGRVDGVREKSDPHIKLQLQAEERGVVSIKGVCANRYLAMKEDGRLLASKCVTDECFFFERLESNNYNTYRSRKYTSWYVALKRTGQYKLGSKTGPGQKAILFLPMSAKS
Protocol: (§1) ELISA tests were performed as previously reported1. In brief, ELISA plates (med-binding, Greiner Bio-One) were coated with 50 nM GFs at 37° C. for 2 hrs. After blocking with 2% BSA solution containing PBS-T, 1 μg/mL of plasma-derived vWF (EMD Millipore) was added. Bound vWF was detected with 1 μg/mL of rabbit anti-human vWF antibody (Sino Biological). Then, HRP conjugated goat anti-rabbit antibody (Jackson ImmunoResearch) was added. After 60 min of incubation, 50 μL TMB substrate (Sigma-Aldrich) was added. The reaction was stopped by adding 25 μL of 2N H2SO4. Subsequently, the absorbance at 450 nm was measured and subtracted the absorbance at 570 nm.

PlGF-2 = molecular target: T1, PlGF-2 (Homo sapiens, UniProt P49763); assay: vWF binding to recombinant GFs (ELISA); design: All GFs and chemokines were purchased in their mature forms; purchased PeproTech; host or cells: Escherichia coli; settings: VEGF-A121 signal as baseline
T1 sequence (P49763 19-170 isoform P49763-3 limits assumed): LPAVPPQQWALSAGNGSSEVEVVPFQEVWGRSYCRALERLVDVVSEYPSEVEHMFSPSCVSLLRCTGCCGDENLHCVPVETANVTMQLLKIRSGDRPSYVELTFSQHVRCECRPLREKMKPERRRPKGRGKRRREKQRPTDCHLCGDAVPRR
Protocol: as §1

VEGF-A121 = molecular target: T2, VEGF-A121 (Homo sapiens, UniProt P15692); assay: vWF binding to recombinant VEGF-A isoforms (ELISA); design: All growth factors (GFs) and chemokines were purchased in their mature forms; purchased PeproTech; host or cells: Escherichia coli; settings: plate coated with 50 nM vWF domains, 1 μg/mL VEGF-A, vs BSA
T2 sequence (P15692 27-147 isoform P15692-9 limits assumed): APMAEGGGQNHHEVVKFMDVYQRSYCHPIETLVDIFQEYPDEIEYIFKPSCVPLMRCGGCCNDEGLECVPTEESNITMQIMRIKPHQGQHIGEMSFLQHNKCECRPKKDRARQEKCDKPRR
Protocol: ELISA was performed as previously reported1. In brief, ELISA plates (med binding: Greiner Bio-One) were coated with 50 nM BSA (GE Healthcare), pro-peptide containing recombinant vWF (Sino Biological), plasma-derived vWF (EMD Millipore), recombinant human vWF A1 domain (U-Protein Express), recombinant human vWF A2 domain (R & D systems), recombinant human vWF A3 domain (U-Protein Express), vWF A1 HBD peptide or scrambled/mutated HBD peptide (all peptides were synthesized by Genscript). After blocking with 2% BSA solution containing PBS-T, 1 μg/mL of recombinant human VEGF-A121 (PeproTech), recombinant human VEGF-A145 (R & D Systems), or recombinant human VEGF-A165 (PeproTech) was added. Bound VEGF-A was detected with 1 μg/mL of mouse anti-human VEGF-A antibody (clone: 26503, R & D systems). After 60 min of incubation, horseradish peroxidase (HRP) conjugated goat anti-mouse antibody (1:2000 dilution, Dako) was added and incubated for another 60 min. Color development and the absorbance measurement were done as described above.

human lung fibroblasts [1] = assay: Cell adhesion assay on vWF HBD coated plates; assay type: cell-based; settings: 1 μg/mL vWF HBD coated plates
Protocol: Cell adhesion assays were performed using starved human lung fibroblasts (Lonza) in FGM-2 medium (Lonza) with or without 5 mM EDTA. Cells were plated at 3000 cells/well on 1 μg/mL vWF HBD pre-coated 96-well plates (non-tissue culture treated, Greiner Bio-one) and incubated for 30 min at 37° C. Then, the medium was removed, and wells were further washed three times with new FGM-2 medium. Cell numbers were quantified using a CyQUANT assay (Invitrogen).

human lung fibroblasts [2] = assay: Cell proliferation assay with vWF HBD, fibroblasts; assay type: cell-based; settings: vWF HBD coated plates, 72 hrs, in the presence of FGF-2
Protocol: (§2) Cell proliferation assays were performed as previously reported1. Briefly, human lung fibroblasts (Lonza) were cultured using FGM-2 medium (Lonza) (1000 cells/well) or human umbilical vein endothelial cells (HUVEC, Lonza) were cultured using EGM-2 medium (Lonza) (1000 cells/well) on 1 μg/mL vWF HBD pre-coated 96-well plates (Tissue culture treated, Falcon). Cell numbers were quantified after 72 hrs using a CyQUANT assay (Invitrogen).

[3] = test system: human umbilical vein endothelial cells (HUVEC); assay: Cell proliferation assay with vWF HBD, HUVEC; assay type: cell-based; settings: vWF HBD coated plates, 72 hrs
Protocol: as §2

## vWF: human plasma-derived von Willebrand factor (EMD Millipore)
VEGF-A
  vWF binding to VEGF-A in pooled human serum: binds to VEGF-A
FGF-2
  vWF binding to FGF-2: bound
PlGF-2
  vWF binding to PlGF-2: bound
VEGF-A121
  binding to VEGF-A121: did not

## YIGLKDRKRPSELRRIASQVKYAC [vWF HBD]
Human lung fibroblasts [1]; 5 mM EDTA
  fibroblast attachment with EDTA: inhibited
Human lung fibroblasts [1]; 30 min, without EDTA
  fibroblast attachment: significantly enhanced fibroblast attachment
Human lung fibroblasts [2]
  fibroblast proliferation: did not significantly affect fibroblast proliferation
[3]
  endothelial proliferation: did not affect endothelial proliferation
